Read-outs that look alike come from different tables or passages of the source.
Experiments:
[1] = tested on: protease from Conidiobolus brefeldianus MTCC 5185; experiment: Stability of protease in presence of organic solvents at 28° C.; format: physicochemical; set-up: key to residual activity of protease, 0 h / residual activity of protease, 12 h: % of initial activity with respective solvent (initial = 100%); conditions: crude protease, 20% (v/v) solvent
Method: This example illustrates the effect of water miscible as well as water immiscible organic solvents on stability of crude protease at 28° C. […] Samples were removed at different time intervals and residual activity was estimated. Sample without organic solvent served as control. Initial activity with respective solvents was taken as 100% (Table 17). […] (Table 17).

[2] = tested on: protease from Conidiobolus brefeldianus MTCC 5185; experiment: Stability of protease in presence of organic solvents at 37° C.; format: physicochemical; conditions: 20% (v/v) solvent; for Residual Activity (%) of protease, 30 min: pH 7, 30 min; for Residual Activity (%) of protease, 60 min: pH 7, 60 min; for Residual Activity (%) of protease, 120 min: pH 7, 120 min; for Residual Activity (%) of protease, 240 min: pH 7, 240 min; for Residual Activity (%) of protease, 0: crude protease, pH 7, 0 min
Method: This example illustrates the effect of water miscible as well as water immiscible organic solvents on stability of crude protease at 37° C. […] Samples were removed at different time intervals and residual activity was estimated. Sample without organic solvent served as control.

[3] = tested on: protease secreted by Conidiobolus brefeldianus MTCC 5185; experiment: Effect of metals on protease activity; format: biochemical
[4] = tested on: protease from Conidiobolus brefeldianus MTCC 5185
Method: This example illustrates the stability of the protease in presence of salts. […] Aliquots were removed at regular intervals of 30 min and residual activity was estimated at 50° C., pH 9.

[5] = tested on: protease of Conidiobolus brefeldianus MTCC 5185; experiment: Effect of inhibitors on protease activity (PMSF, EDTA, iodoacetate, DMSO); format: biochemical
Excerpt: This example illustrates the effect of inhibitors on protease activity of Conidiobolus brefeldianus MTCC 5185. Following inhibitors were studied: phenylmethylsulfonyl fluoride (PMSF), ethylene-diaminetetraacetic acid (EDTA), iodoacetic acid, and dimeth ylsulphoxide (DMSO). The crude culture filtrate grown as described in example 3 was concentrated by ultra-filtration on PM-10 and YM-3 membranes as described in example 27 and used for inhibition studies. Both the protease preparations were pre-incubated in 100 mM Tris-HCl buffer (pH 8.0) with each inhibitor for 1 h and the residual protease activity was measured at 50° C., pH 9.0. Protease without inhibitor served as control.

[6] = tested on: protease from Conidiobolus brefeldianus MTCC 5185; experiment: Stability of protease at 50° C. in presence of sugar alcohols; format: physicochemical; set-up: unit not given here
Method: Ultrafiltered protease as described in example 27 was incubated at 50° C. in presence of glycerol, mannitol, sorbitol and xylitol at 20% concentration up to 3 h. Aliquots were removed at regular intervals of 30 min and residual activity was estimated at 50° C., pH 9.

[7] = metal 5 mM in assay mixture, crude protease
[8] = pre-incubated 1 h, pH 8.0, 20 mM EDTA, 10 mM Iodoacetate, 1 mM PMSF (in DMSO), DMSO

SMILES | residual activity of protease, 0 h [1] | residual activity of protease, 5 h [1] | residual activity of protease, 12 h [1] | Residual Activity (%) of protease, 30 min [2] | Residual Activity (%) of protease, 60 min [2] | Residual Activity (%) of protease, 120 min [2] | Residual Activity (%) of protease, 240 min [2] | Residual Activity (%) of protease, 0 [2] | Relative Activity (%) of protease [3, 7] | further results
CC(C)=O [Acetone, acetone] | 100 | 95.66 | 55.51 | 91.66% | 81.10% | 60.57% | 29.53% | 100% |  | 
CC#N [Acetonitrile, acetonitrile] | 100 | 98.31 | 49.90 | 37.19% | 36.40% | 17.52% | 13.45% | 100% |  | 
[Ca+2].[Cl-].[Cl-] [CaCl2, Calcium chloride] |  |  |  |  |  |  |  |  |  | Relative Activity (%) of protease [3]: 118.25%; effect on protease activity [3]: active; Residual Activity (%) of protease at 50° C. ([4]; 10 mM CaCl2, 0.5M NaCl, 0.5M glycine or 15% (NH4)2SO4, 0 min): 100.00%; Residual Activity (%) of protease at 50° C. ([4]; salt concentration as in column head, 30 min): 91.70%; Residual Activity (%) of protease at 50° C. ([4]; salt concentration as in column head, 60 min): 83.17%; Residual Activity (%) of protease at 50° C. ([4]; salt concentration as in column head, 90 min): 70.83%; Residual Activity (%) of protease at 50° C. ([4]; salt concentration as in column head, 120 min): 63.83%; Residual Activity (%) of protease at 50° C. ([4]; salt concentration as in column head, 180 min): 54.65%; Residual Activity (%) of protease at 50° C. ([4]; salt concentration as in column head, 180 min, listed as Calcium chloride): around 55%
[Cl][Cd][Cl] [CdCl2] |  |  |  |  |  |  |  |  | 114.30% | effect on protease activity ([3]; metal 5 mM): active
[Cl-].[Cl-].[Co+2] [CoCl2] |  |  |  |  |  |  |  |  |  | Relative Activity (%) of protease [3]: 118.71%; effect on protease activity [3]: active
[Cl][Cu][Cl] [CuCl2] |  |  |  |  |  |  |  |  | 12.78% | 
O=C(O)CN(CCN(CC(=O)O)CC(=O)O)CC(=O)O [EDTA, ethylene-diaminetetraacetic acid] |  |  |  |  |  |  |  |  |  | Inhibition (%) PM-10 Retentate [5, 8]: 0.0%; Inhibition (%) YM-3 Retentate [5, 8]: 3.93%
[Cl][Hg][Cl] [HgCl2] |  |  |  |  |  |  |  |  | 3.27% | effect on protease activity ([3]; metal 5 mM): totally inhibited
O=C(O)CI [Iodoacetate, iodoacetic acid] |  |  |  |  |  |  |  |  |  | Inhibition (%) PM-10 Retentate ([5]; pH 8): 0.0%; Inhibition (%) YM-3 Retentate ([5]; pH 8): 16.54%
CC(C)O [Isopropanol, isopropanol] | 100 | 100.29 | 57.79 | 46.06% | 34.35% | 18.73% | 17.11% | 100% |  | 
[Cl-].[K+] [KCl] |  |  |  |  |  |  |  |  | 158.50% | effect on protease activity ([3]; metal 5 mM): active
OC[C@@H](O)[C@@H](O)[C@H](O)[C@H](O)CO [Mannitol, mannitol] |  |  |  |  |  |  |  |  |  | residual activity of protease at 50° C. ([6]; 20% sugar alcohol, 30 min): 74.06; residual activity of protease at 50° C. ([6]; 20% sugar alcohol, 60 min): 64.42; residual activity of protease at 50° C. ([6]; 20% sugar alcohol, 90 min): 58.13; residual activity of protease at 50° C. ([6]; 20% sugar alcohol, 120 min): 48.66; residual activity of protease at 50° C. ([6]; 20% sugar alcohol, 180 min): 40.71; residual activity of protease at 50° C. ([6]; ultrafiltered protease with 20% sugar alcohol, 0 min): 100
CO [Methanol, methanol] | 100 | 100.13 | 52.64 | 59.43% | 59.45% | 48.36% | 16.60% | 100% |  | 

— patent US20130115671A1, “ENZYMES FROM CONIDIOBOLUS BREFELDIANUS AND PROCESS FOR PREPARATION THEREOF” (Council of Scientific and Industrial Research, priority 2010, published 2013)
